Results on 37 molecules are retold here after patent publication US8685970B2, “Quinolines and related analogs as sirtuin modulators” (GlaxoSmithKline, LLC, priority 2008, dated 2014).

This test has as its target T1, SIRT1 (Homo sapiens, UniProt Q96EB6).
T1 sequence (Q96EB6 1-747): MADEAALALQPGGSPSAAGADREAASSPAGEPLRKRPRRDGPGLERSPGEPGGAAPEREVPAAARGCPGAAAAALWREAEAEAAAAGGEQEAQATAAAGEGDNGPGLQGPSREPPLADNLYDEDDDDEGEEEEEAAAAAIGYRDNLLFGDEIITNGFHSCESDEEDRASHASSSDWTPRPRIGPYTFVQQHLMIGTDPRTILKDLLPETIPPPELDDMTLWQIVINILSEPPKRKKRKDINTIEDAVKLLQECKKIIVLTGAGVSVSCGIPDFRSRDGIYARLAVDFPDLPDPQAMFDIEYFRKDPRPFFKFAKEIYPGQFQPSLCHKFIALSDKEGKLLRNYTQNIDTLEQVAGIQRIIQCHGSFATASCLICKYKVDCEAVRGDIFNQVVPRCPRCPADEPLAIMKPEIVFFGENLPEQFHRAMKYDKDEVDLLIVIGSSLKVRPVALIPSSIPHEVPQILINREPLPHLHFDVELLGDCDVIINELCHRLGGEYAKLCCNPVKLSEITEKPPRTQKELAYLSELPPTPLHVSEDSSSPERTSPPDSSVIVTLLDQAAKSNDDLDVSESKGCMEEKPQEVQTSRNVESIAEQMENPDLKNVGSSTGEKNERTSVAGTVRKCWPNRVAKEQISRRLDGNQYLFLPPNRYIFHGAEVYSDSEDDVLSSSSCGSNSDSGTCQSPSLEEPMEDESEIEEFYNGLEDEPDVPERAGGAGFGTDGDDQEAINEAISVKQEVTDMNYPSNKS
Put plainly: Mass spectrometry based SIRT1 deacetylation assay (activation). It is filed as biochemical. Particulars: 10 nM SIRT1, 0.5 μM peptide substrate, 120 μM βNAD+, 25 min at 25° C. An outline of the steps: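 Activation reported as EC1.5, the compound concentration producing 150% of DMSO-control deacetylation, plus maximum fold activation. Readout is mass-spectrometric ratio of deacetylated to acetylated p53-based peptide (0.5 μM) after 25 min, 25 °C, with 120 μM βNAD+ and 10 nM His-tagged human SIRT1, pH 8.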
On to `Cc1cncc(-c2ccc3cccc(C(=O)Nc4nccs4)c3n2)c1` [Compound 242], for which the “EC1.5 (concentration of test compound that results in 150% activation of SIRT1)” value is recorded as “C (EC1.5>25 uM)”. For `Cc1nnc(NC(=O)c2cccc3ccc(-c4cccnc4)nc23)s1` [Compound 235], the “EC1.5 (concentration of test compound that results in 150% activation of SIRT1)” value is “C (EC1.5>25 uM)”.

`O=C(Nc1ccc(OCC(O)CO)cc1)c1cccc2ccc(-c3cccc(OC(F)(F)F)c3)nc12` (centres unmarked) [Compound 150]: the “% Fold Act. (percent maximum fold activation)” value is on record as “A (Fold activation >200%)” and the “EC1.5 (concentration of test compound that results in 150% activation of SIRT1)” value is “A (EC1.5<1.0 uM)”. As to `O=C(Nc1nccs1)c1c(F)ccc2ccc(-c3cccc(C(F)(F)F)c3)nc12` [Compound 83], the “% Fold Act. (percent maximum fold activation)” value is given as “A (Fold activation >200%)” and the “EC1.5 (concentration of test compound that results in 150% activation of SIRT1)” value is recorded as “B (EC1.5 1-25 uM)”. For the molecule `O=C(Nc1nccs1)c1cccc2ccc(-c3ccnc(N4CCOCC4)c3)nc12` [Compound 209], the “% Fold Act. (percent maximum fold activation)” value is given as “B (Fold Activation <200%)” and the “EC1.5 (concentration of test compound that results in 150% activation of SIRT1)” value was “A (EC1.5<1.0 uM)”.

Take `O=C(NC1CN2CCC1CC2)c1cccc2ccc(-c3cccc(C(F)(F)F)c3)nc12` (centres unmarked) [Compound 88]: the “EC1.5 (concentration of test compound that results in 150% activation of SIRT1)” value is recorded as “C (EC1.5>25 uM)”. For the molecule `O=C(Nc1cccc(CN2CCCC2)n1)c1cccc2ccc(-c3cccc(C(F)(F)F)c3)nc12` [Compound 227], the “% Fold Act. (percent maximum fold activation)” value is on record as “A (Fold activation >200%)” and the “EC1.5 (concentration of test compound that results in 150% activation of SIRT1)” value is “A (EC1.5<1.0 uM)”. Consider `Cc1cc(-c2ccc3cccc(C(=O)Nc4cccnc4)c3n2)no1` [Compound 68], for which the “EC1.5 (concentration of test compound that results in 150% activation of SIRT1)” value was “C (EC1.5>25 uM)”.

Consider `Cc1nnc(NC(=O)c2cccc3ccc(-c4cccc(C(F)(F)F)c4)nc23)s1` [Compound 275], for which the “% Fold Act. (percent maximum fold activation)” value is listed as “B (Fold Activation <200%)” and the “EC1.5 (concentration of test compound that results in 150% activation of SIRT1)” value is on record as “A (EC1.5<1.0 uM)”. The corresponding values for `Cc1ccc(-c2ccc3cccc(NC(=O)c4cscn4)c3n2)cc1F` [Compound 213] are “B (Fold Activation <200%)” and “A (EC1.5<1.0 uM)”. The matching figures for `O=C(O)c1csc(NC(=O)c2cccc3ccc(-c4cccc(C(F)(F)F)c4)nc23)n1` [Compound 101]: “A (Fold activation >200%)” and “B (EC1.5 1-25 uM)”. The matching figures for `O=C(Nc1ncnc2ccc(-c3cccc(C(F)(F)F)c3)nc12)c1cscn1` [Compound 259]: “A (Fold activation >200%)” and “A (EC1.5<1.0 uM)”. Regarding `O=C(Nc1cccc2ccc(-c3ccccc3)nc12)c1cccc(N2CCCC2)c1` [Compound 1], the “EC1.5 (concentration of test compound that results in 150% activation of SIRT1)” value is listed as “C (EC1.5>25 uM)”.

On to `O=C(Nc1cccc2ccc(-c3cc(F)cc(C(F)(F)F)c3)nc12)c1ccccc1` [Compound 153], for which the “EC1.5 (concentration of test compound that results in 150% activation of SIRT1)” value is on record as “C (EC1.5>25 uM)”. With `O=C(NC1CCOC1=O)c1cccc2ccc(-c3cccc(C(F)(F)F)c3)nc12` (centres unmarked) [Compound 38], the “% Fold Act. (percent maximum fold activation)” value was “A (Fold activation >200%)” and the “EC1.5 (concentration of test compound that results in 150% activation of SIRT1)” value is “B (EC1.5 1-25 uM)”.

For `O=C(Nc1ncnc2ccc(-c3cccc(OC(F)(F)F)c3)nc12)c1cccnc1` [Compound 210], the “% Fold Act. (percent maximum fold activation)” value was “A (Fold activation >200%)” and the “EC1.5 (concentration of test compound that results in 150% activation of SIRT1)” value is recorded as “B (EC1.5 1-25 uM)”. As to `Cc1csc(NC(=O)c2cccc3ccc(-c4cccc(N5CCOCC5)c4)nc23)n1` [Compound 238], the “% Fold Act. (percent maximum fold activation)” value is on record as “A (Fold activation >200%)” and the “EC1.5 (concentration of test compound that results in 150% activation of SIRT1)” value was “A (EC1.5<1.0 uM)”.

In the case of `O=C(Nc1ncnc2ccc(-c3cccc(OC(F)(F)F)c3)nc12)c1cscn1` [Compound 301], the “% Fold Act. (percent maximum fold activation)” value is reported as “A (Fold activation >200%)” and the “EC1.5 (concentration of test compound that results in 150% activation of SIRT1)” value is listed as “A (EC1.5<1.0 uM)”. Regarding `CS(=O)(=O)c1ccccc1-c1ccc2cccc(NC(=O)c3cscn3)c2n1` [Compound 93], the “% Fold Act. (percent maximum fold activation)” value is on record as “A (Fold activation >200%)” and the “EC1.5 (concentration of test compound that results in 150% activation of SIRT1)” value is given as “A (EC1.5<1.0 uM)”.

Regarding `O=C(Nc1cccc2ccc(-c3ccccc3O)nc12)c1cscn1` [Compound 174], the “% Fold Act. (percent maximum fold activation)” value was “A (Fold activation >200%)” and the “EC1.5 (concentration of test compound that results in 150% activation of SIRT1)” value is on record as “B (EC1.5 1-25 uM)”. As for `O=C(Nc1cccc2ccc(-c3ccccc3)nc12)c1cscn1` [Compound 2], the “% Fold Act. (percent maximum fold activation)” value is “A (Fold activation >200%)” and the “EC1.5 (concentration of test compound that results in 150% activation of SIRT1)” value is on record as “B (EC1.5 1-25 uM)”. In the case of `O=S(=O)(Nc1nccs1)Nc1cccc2ccc(-c3cccc(OC(F)(F)F)c3)nc12` [Compound 113], the “EC1.5 (concentration of test compound that results in 150% activation of SIRT1)” value was “C (EC1.5>25 uM)”.

As to `O=C(Nc1ccncn1)c1cccc2cnc(-c3cccc(C(F)(F)F)c3)nc12` [Compound 271], the “% Fold Act. (percent maximum fold activation)” value is listed as “B (Fold Activation <200%)” and the “EC1.5 (concentration of test compound that results in 150% activation of SIRT1)” value is “B (EC1.5 1-25 uM)”. `Cc1cccc(-c2ccc3cccc(NC(=O)c4cscn4)c3n2)c1` [Compound 79]: the “% Fold Act. (percent maximum fold activation)” value is on record as “B (Fold Activation <200%)” and the “EC1.5 (concentration of test compound that results in 150% activation of SIRT1)” value was “A (EC1.5<1.0 uM)”. The corresponding values for `O=C(O)c1ccc(NC(=O)c2cccc3ccc(-c4cccc(C(F)(F)F)c4)nc23)o1` [Compound 90] are “B (Fold Activation <200%)” and “B (EC1.5 1-25 uM)”. As for `Cc1ccc(-c2ccc3cccc(NC(=O)c4cscn4)c3n2)cn1` [Compound 198], the “% Fold Act. (percent maximum fold activation)” value is on record as “A (Fold activation >200%)” and the “EC1.5 (concentration of test compound that results in 150% activation of SIRT1)” value is reported as “A (EC1.5<1.0 uM)”. The corresponding values for `O=C(NCc1ccncc1)c1cccc2ccc(-c3cccc(O[C@@H]4CCNC4)c3)nc12` [Compound 103] are “A (Fold activation >200%)” and “B (EC1.5 1-25 uM)”. The matching figures for `O=C(Nc1cccc2ccc(-c3cccc(F)c3)nc12)c1cscn1` [Compound 74]: “B (Fold Activation <200%)” and “B (EC1.5 1-25 uM)”. With `O=C(Nc1ccncn1)c1cccc2ccc(-c3cccc(C(F)(F)F)c3)nc12` [Compound 41], the “% Fold Act. (percent maximum fold activation)” value was “A (Fold activation >200%)” and the “EC1.5 (concentration of test compound that results in 150% activation of SIRT1)” value is on record as “A (EC1.5<1.0 uM)”. The corresponding values for `O=C(Nc1cccnc1)c1cccc2ccc(-c3cccc(OC(F)(F)F)c3)nc12` [Compound 25] are “A (Fold activation >200%)” and “A (EC1.5<1.0 uM)”.

Take `Cc1cc(NC(=O)c2cccc3ccc(-c4cccc(C(F)(F)F)c4)nc23)no1` [Compound 73]: the “% Fold Act. (percent maximum fold activation)” value is “B (Fold Activation <200%)” and the “EC1.5 (concentration of test compound that results in 150% activation of SIRT1)” value is recorded as “B (EC1.5 1-25 uM)”. The matching figures for `Cc1cnc(NC(=O)c2cccc3ccc(-c4cccc(OC5CCNCC5)c4)nc23)s1` [Compound 134]: “A (Fold activation >200%)” and “A (EC1.5<1.0 uM)”. The matching figures for `O=C(Nc1cccc2ccc(-c3ccncc3)nc12)c1cscn1` [Compound 77]: “A (Fold activation >200%)” and “A (EC1.5<1.0 uM)”. With `O=C(Nc1cccc2ccc(-c3cncc(F)c3)nc12)c1cscn1` [Compound 199], the “EC1.5 (concentration of test compound that results in 150% activation of SIRT1)” value was “C (EC1.5>25 uM)”. With `O=C(Nc1cccc2ccc(-c3cccc(CN4CCNCC4)c3)nc12)c1cscn1` [Compound 121], the “% Fold Act. (percent maximum fold activation)” value is “A (Fold activation >200%)” and the “EC1.5 (concentration of test compound that results in 150% activation of SIRT1)” value was “A (EC1.5<1.0 uM)”. In the case of `O=C(Nc1ccccn1)c1cccc2cnc(-c3cccc(C(F)(F)F)c3)nc12` [Compound 283], the “EC1.5 (concentration of test compound that results in 150% activation of SIRT1)” value is listed as “C (EC1.5>25 uM)”. As to `O=C(Nc1ccc(F)cn1)c1cccc2ccc(-c3cccc(N4CCOCC4)c3)nc12` [Compound 277], the “% Fold Act. (percent maximum fold activation)” value is recorded as “A (Fold activation >200%)” and the “EC1.5 (concentration of test compound that results in 150% activation of SIRT1)” value is recorded as “A (EC1.5<1.0 uM)”.
